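Each compound was tested at five concentrations against cells in 96-well plates for 48 hours. The concentration for 50% growth inhibition is given as GI50.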 The source made the active and inactive calls. Cut-off read from the data, not from the text of the source: active = GI50 up to about 1.1 µM and inactive = higher.
Columns and labels:
Assay in all cases: NCI tumour cell line growth inhibition, 48 h
A549 = test system: A549
NCI-H522 = test system: NCI-H522
SN12C = test system: SN12C
TK-10 = test system: TK-10
SW-620 = test system: SW-620
EKVX = test system: EKVX
HL-60 = test system: HL-60
SR = test system: SR
MOLT-4 = test system: MOLT-4
HOP-92 = test system: HOP-92
CCRF-CEM = test system: CCRF-CEM
HCC 2998 = test system: HCC 2998
UACC-257 = test system: UACC-257
HOP-62 = test system: HOP-62
RPMI-8226 = test system: RPMI-8226
A498 = test system: A498
KM12 = test system: KM12
MCF7 = test system: MCF7
HCT-116 = test system: HCT-116
MDA-N = test system: MDA-N

Measured: GI50

COc1ccc(C2C(C=O)C(N3CCN(C)CC3)=Nc3nc4ccccc4n32)cc1 (configuration not stated)
inactive: A549 17.2 µM | NCI-H522 13 µM | SN12C 17.9 µM | TK-10 14.3 µM | SW-620 17.3 µM | EKVX 27.7 µM | HL-60 2.09 µM | HOP-92 4.83 µM | CCRF-CEM 2.31 µM | HCC 2998 17.7 µM | UACC-257 16.6 µM | HOP-62 12.2 µM | RPMI-8226 2.35 µM | A498 11 µM | KM12 16.3 µM | MCF7 13.2 µM | HCT-116 14.6 µM
active: SR 0.0382 µM | MOLT-4 < 0.01 µM

CCOC(=O)c1nc2ccc(C(F)(F)F)cc2nc1Oc1ccc(F)cc1
inactive: TK-10 > 100 µM | SW-620 > 100 µM | EKVX > 100 µM | HL-60 > 100 µM | SR > 100 µM | MOLT-4 > 100 µM | HOP-92 > 100 µM | CCRF-CEM > 100 µM | HCC 2998 > 100 µM | UACC-257 > 100 µM | HOP-62 > 100 µM | RPMI-8226 > 100 µM | A498 > 100 µM | KM12 > 100 µM | MCF7 > 100 µM | HCT-116 > 100 µM

CN1CCOC(c2ccccc2)O1 (configuration not stated)
inactive: A549 > 100 µM | NCI-H522 > 100 µM | SN12C > 100 µM | TK-10 > 100 µM | SW-620 > 100 µM | EKVX > 100 µM | HL-60 > 100 µM | SR > 100 µM | MOLT-4 > 100 µM | HOP-92 > 100 µM | CCRF-CEM > 100 µM | HCC 2998 > 100 µM | UACC-257 > 100 µM | HOP-62 > 100 µM | RPMI-8226 > 100 µM | A498 > 100 µM | KM12 > 100 µM | HCT-116 > 100 µM

C1CN(c2nc3c(nnc4nc(N5CCOCC5)sc43)s2)CCO1
inactive: MDA-N > 100 µM | A549 > 100 µM | NCI-H522 45.3 µM | SN12C 96.6 µM | TK-10 > 100 µM | SW-620 > 100 µM | EKVX > 100 µM | HL-60 > 100 µM | MOLT-4 58.7 µM | HOP-92 29.4 µM | CCRF-CEM 52.8 µM | UACC-257 > 100 µM | HOP-62 > 100 µM | RPMI-8226 > 100 µM | A498 > 100 µM | KM12 > 100 µM | MCF7 73.3 µM | HCT-116 > 100 µM

Oc1ccccc1/C=N/c1ccc(-c2nc3ccccc3s2)cc1
inactive: MDA-N 29.6 µM | A549 36.7 µM | NCI-H522 17.3 µM | SN12C 29.3 µM | TK-10 31.2 µM | SW-620 41.5 µM | EKVX 21.3 µM | HL-60 11.8 µM | SR 33.7 µM | MOLT-4 22.7 µM | HOP-92 17.7 µM | CCRF-CEM 6.89 µM | HCC 2998 20.3 µM | UACC-257 24 µM | HOP-62 19.1 µM | RPMI-8226 23.2 µM | A498 21.4 µM | KM12 22 µM | HCT-116 29.6 µM

COc1ccc(C2COc3c(ccc(OC)c3OC)C2=O)cc1OC (configuration not stated)
inactive: A549 > 100 µM | NCI-H522 > 100 µM | SN12C > 100 µM | TK-10 > 100 µM | SW-620 > 100 µM | EKVX > 100 µM | HL-60 > 100 µM | SR > 100 µM | MOLT-4 > 100 µM | HOP-92 > 100 µM | CCRF-CEM > 100 µM | HCC 2998 > 100 µM | UACC-257 > 100 µM | HOP-62 > 100 µM | RPMI-8226 > 100 µM | A498 > 100 µM | KM12 > 100 µM | HCT-116 > 100 µM

CCN(CC)C(=S)SNCCc1ccc(S(N)(=O)=O)cc1
active: SR < 0.01 µM | CCRF-CEM 0.169 µM
inactive: MDA-N 18.3 µM | A549 11.9 µM | SN12C 14.2 µM | TK-10 18.6 µM | SW-620 14.1 µM | EKVX 20 µM | HOP-92 17.5 µM | HCC 2998 21.6 µM | UACC-257 15.5 µM | HOP-62 12.2 µM | RPMI-8226 11.5 µM | A498 30.7 µM | KM12 16.6 µM | HCT-116 13.3 µM

CN(C)CCN(C)CC1COC(C)(C)O1 (configuration not stated)
inactive: A549 > 100 µM | NCI-H522 > 100 µM | SN12C > 100 µM | TK-10 > 100 µM | SW-620 > 100 µM | EKVX > 100 µM | HL-60 > 100 µM | SR > 100 µM | MOLT-4 > 100 µM | HOP-92 > 100 µM | CCRF-CEM > 100 µM | HCC 2998 > 100 µM | UACC-257 > 100 µM | HOP-62 > 100 µM | RPMI-8226 > 100 µM | A498 > 100 µM | KM12 > 100 µM | HCT-116 > 100 µM

Reference: ChEMBL document CHEMBL1201862, “PubChem BioAssay data set” (2004)
